Laboratory results from PMC12292835, “Amylin Receptor 1 Mutagenesis Revealed a Potential Role of Calcitonin Serine 29 in Receptor Interaction” (Biomedicines, 2025).
Where a SMILES comes first, the peptide text is derived from it. The star is where a group is joined. FITC = O=C1OC2(c3ccc(O)cc3Oc3cc(O)ccc32)c2ccc(NC(=S)*)cc21

Key:
receptor ECD = receptor ECD binding; cited from earlier work
Experimental: The salmon calcitonin C-terminal fragment was reported to have micromolar affinity (KI 1~3 μM) both for calcitonin and amylin receptor ECDs. The fluorescein isothiocyanate (FITC)-labeled salmon calcitonin fragment (FITC-sCT(22–32)) was used as a peptide probe for the receptor–ligand binding assay in the current study. FITC addition to the N-terminus of an amylin receptor antagonistic peptide AC413(6–25) Y25P was previously shown to increase the peptide affinity for receptor ECD binding by more than 10-fold. Based on the binding affinity of FITC-sCT(22–32) measured in the current ...

[1] = molecular target: T1, amylin receptor 1 ECD wild-type (WT) (Homo sapiens, UniProt O60894+P30988); assay: FP saturation binding, FITC peptide probes, wild-type amylin receptor 1 ECD; details: for Average fluorescence intensity change upon receptor ECD binding: % of a free probe intensity, Mean ± S.D., WT, max receptor 3 μM (sCT), 1 μM (AC413)
T1 construct: pHLsec/hRAMP1.24–111-(GSA)3-hCTR.34–141-H6 (H-pSL005); H6 (hexahistidine) (C); made in house; host or cells: HEK293 (transient transfection, secreted, N-glycosylated)
T1 sequence (O60894 24-111): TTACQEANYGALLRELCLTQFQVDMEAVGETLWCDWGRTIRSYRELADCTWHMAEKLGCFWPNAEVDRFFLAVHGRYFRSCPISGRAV
T1 sequence (P30988 34-141): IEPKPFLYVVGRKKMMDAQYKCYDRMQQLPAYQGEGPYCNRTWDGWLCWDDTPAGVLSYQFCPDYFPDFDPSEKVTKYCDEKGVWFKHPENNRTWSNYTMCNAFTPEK
Source text: pHLsec-based vectors were used to express wild-type and mutated amylin receptor 1 extracellular domains as secreted proteins to cell culture media. The plasmid DNA construct of the wild-type amylin receptor 1 extracellular domain, pHLsec/hRAMP1.24–111-(GSA)3-hCTR.34–141-H6 (H-pSL005) was previously described. The following DNA vector plasmids were made for this study: pHLsec/hRAMP1.24–111-(GSA)3-hCTR.34–141.D97A-H6 (D-pSL009), pHLsec/hRAMP1.24–111-(GSA)3-hCTR.34–141.D97E-H6 (D-pJS001), pHLsec/hRAMP1.24–111-(GSA)3-hCTR.34–141.D101A-H6 (D-pJJ003), pHLsec/hRAMP1.24–111-(GSA)3-hCTR.34–141.D101E-H6 (D-pJJ002), pHLsec/hRAMP1.24–111-(GSA)3-hCTR.34–141.E123A-H6 (D-pJJ004), pHLsec/hRAMP1.24–111-(GSA)3-hCTR.34–141.E123D-H6 (D-pJJ001), pHLsec/hRAMP1.24–111-(GSA)3-hCTR.34–141.N124A-H6 (D-pJS005), pHLsec/hRAMP1.24–111-(GSA)3-hCTR.34–141.N124D-H6 (D-pJS006), pHLsec/hRAMP1.24–111-(GSA)3-hCTR.34–141.N135A-H6 (D-pJW001), and pHLsec/hRAMP1.24–111-(GSA)3-hCTR.34–141.N135D-H6 (D-pJS002). The mutations were introduced to the calcitonin receptor extracellular domain by using DNA Assembly reaction. Coding sequences of the receptor expression vectors were confirmed with Sanger sequencing by Bionics (Seoul, Republic of Korea). DNA plasmid vectors were extracted and were purified from bacterial cells with NucleoBond® Extra Midi Plus kit (Macherey-Nagel, Germany). The purified DNA vectors were stored at −20 °C until their use for mammalian cell transfection.
The overall experimental procedure of reconstituting the functional amylin receptor 1 extracellular domain (ECD) as the fusion protein of RAMP1 ECD and the calcitonin receptor ECD was previously described. The wild-type and mutated amylin receptor 1 ECDs were expressed from HEK293 cells with transient transfection with polyethylenimine. […]
The overall procedure of the FP binding assay with a saturation binding format was previously described. […] FITC-labeled peptide probes were incubated for 1 h at room temperature with the purified receptor protein prior to fluorescence signal measurement. […]

Structure (SMILES)	increase of peptide affinity by FITC addition to the N-terminus (receptor ECD)	Average fluorescence intensity change upon receptor ECD binding [1] [%]	stronger affinity of FITC-labeled over non-labeled peptide ([1]; KD 81 nM versus previously reported KI 2.5 μM of non-labeled sCT(22–32))
CC(C)C[C@H](NC(=O)[C@H](CCCNC(=N)N)NC(=O)[C@@H](NC(=O)[C@H](CC(C)C)NC(=O)[C@H](Cc1ccccc1)NC(=O)[C@H](CC(N)=O)NC(=O)[C@H](C)NC(=S)Nc1ccc2c(c1)C(=O)OC21c2ccc(O)cc2Oc2cc(O)ccc21)C(C)C)C(=O)N[C@@H](CCC(N)=O)C(=O)N[C@H](C(=O)N[C@@H](Cc1ccc(O)cc1)C(=O)N1CCC[C@H]1C(=O)N[C@@H](CCCNC(=N)N)C(=O)N[C@H](C(=O)N[C@@H](CC(N)=O)C(=O)N[C@H](C(=O)NCC(=O)N[C@@H](C)C(=O)N[C@@H](CC(N)=O)C(=O)N[C@H](C(=O)N1CCC[C@H]1C(N)=O)[C@@H](C)O)C(C)C)[C@@H](C)O)[C@@H](C)O [FITC-AC413(6–25) Y25P] ({FITC}-ANFLVRLQTYPRTNVGANTP-NH2; C-terminus assumed)	more than 10 fold	67 ± 8	
C[C@@H](O)[C@H](NC(=O)[C@H](CC(N)=O)NC(=O)[C@@H](NC(=O)[C@H](CCCNC(=N)N)NC(=O)[C@@H]1CCCN1C(=O)[C@H](Cc1ccc(O)cc1)NC(=S)Nc1ccc2c(c1)C(=O)OC21c2ccc(O)cc2Oc2cc(O)ccc21)[C@@H](C)O)C(=O)NCC(=O)N[C@@H](CO)C(=O)NCC(=O)N[C@H](C(=O)N1CCC[C@H]1C(N)=O)[C@@H](C)O [FITC-sCT(22–32)] ({FITC}-YPRTNTGSGTP-NH2; C-terminus assumed)		71 ± 4	more than 30 fold
